{"source": "PubChem BioAssay AID1963962", "about": "(Molecular Pharmacology Branch, DTP, NCI, 2024);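 also: spheroids exposed to agents for 7 days before read-out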;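 as to viability, T/C: luminescence used as surrogate of cell viability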", "system": "967376-340-R-J2-PDC multicell spheroid viability", "assay": "Anticancer human tumor 967376-340-R-J2-PDC patient-derived colon adenocarcinoma cell line growth inhibition [PI3K]", "settings": "for IC50: curve of first compound; for viability, T/C: stronger effect = lower value", "procedure,_shortened": "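Spheroid viability read-out. Co-cultures contained the tumor line plus HUVEC and human MSCs. Each agent was paired with a PI3K inhibitor (inavolisib, alpelisib, duvelisib, copanlisib) across half-log dilutions starting at clinical Cmax, or at 10 microM when Cmax was unknown.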", "data": [{"smiles": "CNC(=O)c1ccc(N2C(=S)N(c3ccc(C#N)c(C(F)(F)F)c3)C(=O)C2(C)C)cc1F", "note": "+ Cc1nc(NC(=O)N2CCCC2C(N)=O)sc1-c1ccnc(C(C)(C)C(F)(F)F)c1", "values": [{"measurement": "IC50", "setting": "second compound 0.0316 µM", "value": "> 10000", "unit": "nM"}, {"measurement": "IC50", "setting": "second compound 0.1 µM", "value": "> 10000", "unit": "nM"}, {"measurement": "IC50", "setting": "second compound 0.316 µM", "value": "> 10000", "unit": "nM"}, {"measurement": "IC50", "setting": "second compound 1 µM", "value": "> 10000", "unit": "nM"}, {"measurement": "IC50", "setting": "second compound 3.16 µM", "value": "> 10000", "unit": "nM"}, {"measurement": "IC50", "setting": "second compound 10 µM", "value": "> 10000", "unit": "nM"}, {"measurement": "viability, T/C", "setting": "second compound 0.0316 µM, first compound 0.0316 µM", "value": 72.6, "unit": "%"}, {"measurement": "viability, T/C", "setting": "second compound 0.0316 µM, first compound 0.1 µM", "value": 93.5, "unit": "%"}, {"measurement": "viability, T/C", "setting": "second compound 0.0316 µM, first compound 0.316 µM", "value": 90.1, "unit": "%"}, {"measurement": "viability, T/C", "setting": "second compound 0.0316 µM, first compound 1 µM", "value": 98.6, "unit": "%"}, {"measurement": "viability, T/C", "setting": "second compound 0.0316 µM, first compound 3.16 µM", "value": 107, "unit": "%"}, {"measurement": "viability, T/C", "setting": "second compound 0.0316 µM, first compound 10 µM", "value": 105, "unit": "%"}, {"measurement": "viability, T/C", "setting": "second compound 0.1 µM, first compound 0.0316 µM", "value": 129, "unit": "%"}, {"measurement": "viability, T/C", "setting": "second compound 0.1 µM, first compound 0.1 µM", "value": 85.5, "unit": "%"}, {"measurement": "viability, T/C", "setting": "second compound 0.1 µM, first compound 0.316 µM", "value": 86.8, "unit": "%"}, {"measurement": "viability, T/C", "setting": "second compound 0.1 µM, first compound 1 µM", "value": 88.5, "unit": "%"}, {"measurement": "viability, T/C", "setting": "second compound 0.1 µM, first compound 3.16 µM", "value": 101, "unit": "%"}, {"measurement": "viability, T/C", "setting": "second compound 0.1 µM, first compound 10 µM", "value": 84, "unit": "%"}, {"measurement": "viability, T/C", "setting": "second compound 0.316 µM, first compound 0.0316 µM", "value": 64.2, "unit": "%"}, {"measurement": "viability, T/C", "setting": "second compound 0.316 µM, first compound 0.1 µM", "value": 72.8, "unit": "%"}, {"measurement": "viability, T/C", "setting": "second compound 0.316 µM, first compound 0.316 µM", "value": 92.6, "unit": "%"}, {"measurement": "viability, T/C", "setting": "second compound 0.316 µM, first compound 1 µM", "value": 83.5, "unit": "%"}, {"measurement": "viability, T/C", "setting": "second compound 0.316 µM, first compound 3.16 µM", "value": 115, "unit": "%"}, {"measurement": "viability, T/C", "setting": "second compound 0.316 µM, first compound 10 µM", "value": 85.8, "unit": "%"}, {"measurement": "viability, T/C", "setting": "second compound 1 µM, first compound 0.0316 µM", "value": 65.6, "unit": "%"}, {"measurement": "viability, T/C", "setting": "second compound 1 µM, first compound 0.1 µM", "value": 70, "unit": "%"}, {"measurement": "viability, T/C", "setting": "second compound 1 µM, first compound 0.316 µM", "value": 65.6, "unit": "%"}, {"measurement": "viability, T/C", "setting": "second compound 1 µM, first compound 1 µM", "value": 68.5, "unit": "%"}, {"measurement": "viability, T/C", "setting": "second compound 1 µM, first compound 3.16 µM", "value": 79.7, "unit": "%"}, {"measurement": "viability, T/C", "setting": "second compound 1 µM, first compound 10 µM", "value": 75, "unit": "%"}, {"measurement": "viability, T/C", "setting": "second compound 3.16 µM, first compound 0.0316 µM", "value": 58.9, "unit": "%"}, {"measurement": "viability, T/C", "setting": "second compound 3.16 µM, first compound 0.1 µM", "value": 62.6, "unit": "%"}, {"measurement": "viability, T/C", "setting": "second compound 3.16 µM, first compound 0.316 µM", "value": 58.7, "unit": "%"}, {"measurement": "viability, T/C", "setting": "second compound 3.16 µM, first compound 1 µM", "value": 55.9, "unit": "%"}, {"measurement": "viability, T/C", "setting": "second compound 3.16 µM, first compound 3.16 µM", "value": 63.6, "unit": "%"}, {"measurement": "viability, T/C", "setting": "second compound 3.16 µM, first compound 10 µM", "value": 59, "unit": "%"}, {"measurement": "viability, T/C", "setting": "second compound 10 µM, first compound 0.0316 µM", "value": 63.9, "unit": "%"}, {"measurement": "viability, T/C", "setting": "second compound 10 µM, first compound 0.1 µM", "value": 55, "unit": "%"}, {"measurement": "viability, T/C", "setting": "second compound 10 µM, first compound 0.316 µM", "value": 53.2, "unit": "%"}, {"measurement": "viability, T/C", "setting": "second compound 10 µM, first compound 1 µM", "value": 57.3, "unit": "%"}, {"measurement": "viability, T/C", "setting": "second compound 10 µM, first compound 3.16 µM", "value": 47.3, "unit": "%"}, {"measurement": "viability, T/C", "setting": "second compound 10 µM, first compound 10 µM", "value": 59.5, "unit": "%"}]}, {"smiles": "Cn1cnc2c(F)c(Nc3ccc(Br)cc3Cl)c(C(=O)NOCCO)cc21", "note": "+ Cc1nc(NC(=O)N2CCCC2C(N)=O)sc1-c1ccnc(C(C)(C)C(F)(F)F)c1", "values": [{"measurement": "IC50", "setting": "second compound 0.0316 µM", "value": 659, "unit": "nM"}, {"measurement": "IC50", "setting": "second compound 0.1 µM", "value": 679, "unit": "nM"}, {"measurement": "IC50", "setting": "second compound 0.316 µM", "value": 360, "unit": "nM"}, {"measurement": "IC50", "setting": "second compound 1 µM", "value": 304, "unit": "nM"}, {"measurement": "IC50", "setting": "second compound 3.16 µM", "value": 97.7, "unit": "nM"}, {"measurement": "IC50", "setting": "second compound 10 µM", "value": 39.4, "unit": "nM"}, {"measurement": "viability, T/C", "setting": "second compound 0.0316 µM, first compound 0.00949 µM", "value": 89, "unit": "%"}, {"measurement": "viability, T/C", "setting": "second compound 0.0316 µM, first compound 0.03 µM", "value": 101, "unit": "%"}, {"measurement": "viability, T/C", "setting": "second compound 0.0316 µM, first compound 0.0949 µM", "value": 104, "unit": "%"}, {"measurement": "viability, T/C", "setting": "second compound 0.0316 µM, first compound 0.3 µM", "value": 60, "unit": "%"}, {"measurement": "viability, T/C", "setting": "second compound 0.0316 µM, first compound 0.949 µM", "value": 48.1, "unit": "%"}, {"measurement": "viability, T/C", "setting": "second compound 0.0316 µM, first compound 3 µM", "value": 19.7, "unit": "%"}, {"measurement": "viability, T/C", "setting": "second compound 0.1 µM, first compound 0.00949 µM", "value": 88.3, "unit": "%"}, {"measurement": "viability, T/C", "setting": "second compound 0.1 µM, first compound 0.03 µM", "value": 56.1, "unit": "%"}, {"measurement": "viability, T/C", "setting": "second compound 0.1 µM, first compound 0.0949 µM", "value": 76.7, "unit": "%"}, {"measurement": "viability, T/C", "setting": "second compound 0.1 µM, first compound 0.3 µM", "value": 61.8, "unit": "%"}, {"measurement": "viability, T/C", "setting": "second compound 0.1 µM, first compound 0.949 µM", "value": 43.8, "unit": "%"}, {"measurement": "viability, T/C", "setting": "second compound 0.1 µM, first compound 3 µM", "value": 28.7, "unit": "%"}, {"measurement": "viability, T/C", "setting": "second compound 0.316 µM, first compound 0.00949 µM", "value": 68.5, "unit": "%"}, {"measurement": "viability, T/C", "setting": "second compound 0.316 µM, first compound 0.03 µM", "value": 81.5, "unit": "%"}, {"measurement": "viability, T/C", "setting": "second compound 0.316 µM, first compound 0.0949 µM", "value": 62.5, "unit": "%"}, {"measurement": "viability, T/C", "setting": "second compound 0.316 µM, first compound 0.3 µM", "value": 56.7, "unit": "%"}, {"measurement": "viability, T/C", "setting": "second compound 0.316 µM, first compound 0.949 µM", "value": 27, "unit": "%"}, {"measurement": "viability, T/C", "setting": "second compound 0.316 µM, first compound 3 µM", "value": 16, "unit": "%"}, {"measurement": "viability, T/C", "setting": "second compound 1 µM, first compound 0.00949 µM", "value": 68.8, "unit": "%"}, {"measurement": "viability, T/C", "setting": "second compound 1 µM, first compound 0.03 µM", "value": 64.4, "unit": "%"}, {"measurement": "viability, T/C", "setting": "second compound 1 µM, first compound 0.0949 µM", "value": 61.1, "unit": "%"}, {"measurement": "viability, T/C", "setting": "second compound 1 µM, first compound 0.3 µM", "value": 51.6, "unit": "%"}, {"measurement": "viability, T/C", "setting": "second compound 1 µM, first compound 0.949 µM", "value": 28.4, "unit": "%"}, {"measurement": "viability, T/C", "setting": "second compound 1 µM, first compound 3 µM", "value": 15.6, "unit": "%"}, {"measurement": "viability, T/C", "setting": "second compound 3.16 µM, first compound 0.00949 µM", "value": 54, "unit": "%"}, {"measurement": "viability, T/C", "setting": "second compound 3.16 µM, first compound 0.03 µM", "value": 64.8, "unit": "%"}, {"measurement": "viability, T/C", "setting": "second compound 3.16 µM, first compound 0.0949 µM", "value": 49.2, "unit": "%"}, {"measurement": "viability, T/C", "setting": "second compound 3.16 µM, first compound 0.3 µM", "value": 26.6, "unit": "%"}, {"measurement": "viability, T/C", "setting": "second compound 3.16 µM, first compound 0.949 µM", "value": 9.72, "unit": "%"}, {"measurement": "viability, T/C", "setting": "second compound 3.16 µM, first compound 3 µM", "value": 3.22, "unit": "%"}, {"measurement": "viability, T/C", "setting": "second compound 10 µM, first compound 0.00949 µM", "value": 54.6, "unit": "%"}, {"measurement": "viability, T/C", "setting": "second compound 10 µM, first compound 0.03 µM", "value": 49.7, "unit": "%"}, {"measurement": "viability, T/C", "setting": "second compound 10 µM, first compound 0.0949 µM", "value": 44.6, "unit": "%"}, {"measurement": "viability, T/C", "setting": "second compound 10 µM, first compound 0.3 µM", "value": 28.8, "unit": "%"}, {"measurement": "viability, T/C", "setting": "second compound 10 µM, first compound 0.949 µM", "value": 5.99, "unit": "%"}, {"measurement": "viability, T/C", "setting": "second compound 10 µM, first compound 3 µM", "value": 1.33, "unit": "%"}]}]}
